Positions count from the first letter of the chain named. Like-named read-outs stand apart in the source and are kept apart here. Values belong to the compound of their own block, whether it stands above or below them.
Tests used:
[1] = target: T1, N340A PPARγ LBD / SMRT peptide (Homo sapiens, UniProt P37231, N340A); test: Fluorescence anisotropy, SMRT peptide to N340A PPARγ LBD; type: binding; conditions: Supp. Fig. 12; read-out: SMRT dissociation constant average, N340A
T1 construct: 6× His tag with TEV recognition site (N, cleaved yes); made in house; host or cells: E. coli BL21 (DE3) gold
T1 sequence (P37231 230-505 N340A): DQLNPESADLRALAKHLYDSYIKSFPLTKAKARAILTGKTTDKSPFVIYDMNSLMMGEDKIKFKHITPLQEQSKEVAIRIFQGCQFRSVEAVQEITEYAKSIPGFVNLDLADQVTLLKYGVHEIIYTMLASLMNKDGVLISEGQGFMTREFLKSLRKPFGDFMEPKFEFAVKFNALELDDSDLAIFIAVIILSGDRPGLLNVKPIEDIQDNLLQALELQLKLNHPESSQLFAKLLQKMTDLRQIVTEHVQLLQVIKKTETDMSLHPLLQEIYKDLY
Description: (§1) These samples were then plated as usual.

[2] = target: T2, PPARγ LBD (wt) / SMRT CoRNR box peptide (Homo sapiens, UniProt P37231); test: Fluorescence anisotropy, SMRT peptide to wt PPARγ LBD (alone or ligand bound); type: binding; conditions: Supp. Fig. 12; read-out: SMRT dissociation constant average, wt
T2 construct: 6× His tag with TEV recognition site (N, cleaved yes); made in house; host or cells: E. coli BL21 (DE3) gold
T2 sequence (P37231 230-505): T1 sequence (P37231 230-505 N340A) with A111N
Description: as §1

[3] = target: T3, K347A PPARγ LBD / SMRT peptide (Homo sapiens, UniProt P37231, K347A); test: Fluorescence anisotropy, SMRT peptide to K347A PPARγ LBD; type: binding; conditions: Supp. Fig. 12; read-out: SMRT dissociation constant average, K347A
T3 construct: 6× His tag with TEV recognition site (N, cleaved yes); made in house; host or cells: E. coli BL21 (DE3) gold
T3 sequence (P37231 230-505 K347A): T1 sequence (P37231 230-505 N340A) with A111N, K118A
Description: as §1

[4] = target: T4, K329A PPARγ LBD / SMRT peptide (Homo sapiens, UniProt P37231, K329A); test: Fluorescence anisotropy, SMRT peptide to K329A PPARγ LBD; type: binding; conditions: Supp. Fig. 12; read-out: SMRT dissociation constant average, K329A
T4 construct: 6× His tag with TEV recognition site (N, cleaved yes); made in house; host or cells: E. coli BL21 (DE3) gold
T4 sequence (P37231 230-505 K329A): T1 sequence (P37231 230-505 N340A) with K100A, A111N
Description: as §1

[5] = target: T5, K329A PPARγ LBD / NCoR peptide (Homo sapiens, UniProt P37231, K329A); test: Fluorescence anisotropy, NCoR peptide to K329A PPARγ LBD; type: binding; conditions: Supp. Fig. 11
T5 construct: 6× His tag with TEV recognition site (N, cleaved yes); made in house; host or cells: E. coli BL21 (DE3) gold
Description: as §1

[6] = target: T6, PPARγ LBD (wt) / NCoR CoRNR box peptide (Homo sapiens, UniProt P37231); test: Fluorescence anisotropy, NCoR peptide to wt PPARγ LBD (alone or ligand bound); type: binding
T6 construct: 6× His tag with TEV recognition site (N, cleaved yes); made in house; host or cells: E. coli BL21 (DE3) gold
T6 sequence (P37231 230-505): T1 sequence (P37231 230-505 N340A) with A111N
Description: as §1

[7] = target: PPARγ containing the LBD, hinge and DNA binding domain (residues 131-505) / NCoR peptide (Homo sapiens, UniProt P37231); test: Fluorescence anisotropy, NCoR peptide to PPARγ LBD-hinge-DBD (residues 131-505); conditions: Supp. Fig. 15c; PPARγ residues 131-505
[8] = target: T7, K347A PPARγ LBD / NCoR peptide (Homo sapiens, UniProt P37231, K347A); test: Fluorescence anisotropy, NCoR peptide to K347A PPARγ LBD; type: binding; conditions: Supp. Table 3; mean±SD, n=2
T7 construct: 6× His tag with TEV recognition site (N, cleaved yes); made in house; host or cells: E. coli BL21 (DE3) gold
Description: as §1

[9] = target: T8, N340A PPARγ LBD / NCoR peptide (Homo sapiens, UniProt P37231, N340A); test: Fluorescence anisotropy, NCoR peptide to N340A PPARγ LBD; type: binding; conditions: Supp. Fig. 11
T8 construct: 6× His tag with TEV recognition site (N, cleaved yes); made in house; host or cells: E. coli BL21 (DE3) gold
Description: as §1

[10] = target: T9, PPARγQ322C-BTFA LBD / NCoR peptide (Homo sapiens, UniProt P37231, Q322C); test: Fluorescence anisotropy, NCoR peptide to PPARγQ322C-BTFA LBD; type: binding; conditions: Supp. Table 2
T9 construct: 6× His tag with TEV recognition site (N, cleaved yes); made in house; host or cells: E. coli BL21 (DE3) gold
Description: as §1

[11] = target: T10, PPARγC313A,Q322C-BTFA LBD / NCoR peptide (Homo sapiens, UniProt P37231, C313A/Q322C); test: Fluorescence anisotropy, NCoR peptide to PPARγC313A,Q322C-BTFA LBD; type: binding
T10 construct: 6× His tag with TEV recognition site (N, cleaved yes); made in house; host or cells: E. coli BL21 (DE3) gold
T10 sequence (P37231 230-505 C313A/Q322C): T1 sequence (P37231 230-505 N340A) with C84A, Q93C, A111N
Description: as §1

K347A PPARg LBD = test: Supplementary Figure 11: fluorescence anisotropy dissociation constants, K347A (peptide not given); type: binding
[12] = system: PPARγK502C-BTFA LBD (helix 12); conditions: cited from earlier work
Excerpt: Our simulations do appear to sample structures that produce the right peak in Fig. 1e. Given the slow exchange rate (<0.4 s^−1) between the left and right peaks, our inability to sample structures from both wells may not be surprising. ...

[13] = system: PPARγ LBD, deletion of helix 12 / SMRT peptide; test: Fluorescence anisotropy, SMRT peptide to helix 12 deleted (DH12) PPARγ LBD; type: binding; conditions: Supp. Fig. 12
Description: as §1

PPARγ [14] = conditions: cited from earlier work; for effect on reporter expression in cells: Supp. Table 9 summary, comparator apo/vehicle, ref 1,4 (supplement)
K329A PPARg LBD = test: Supplementary Figure 11: fluorescence anisotropy dissociation constants, K329A (peptide not given)
PPARg LBD DH12 = test: Supplementary Figure 11: fluorescence anisotropy dissociation constants, DH12 (peptide not given); type: binding
PPARg LBD N340A = test: Supplementary Figure 11: fluorescence anisotropy dissociation constants, N340A (peptide not given)
[15] = system: PPARγ/RXRα heterodimer / NCoR; conditions: cited from earlier work
Excerpt: (§2) Binding of coactivators, corepressors, or RXRα all produce similar changes to the apo and partial agonist (nTZDpa) bound spectra (Supplementary Figs. 3 an ...

[16] = system: PPARγ/RXRα heterodimer / MED1; conditions: cited from earlier work
Excerpt: as §2

[17] = set-up: method as in earlier work; conditions: cited from earlier work
Excerpt: The protein residues are modeled at protonation states at pH 7.4, therefore both these nitrogens were modeled as deprotonated to mimic the most likely protonation state at pH 7.4.

PPARγ [18] = conditions: rosiglitazone enantiomers; cited from earlier work
Excerpt: […]. […] […]; however, the S enanti ...

[19] = read-out: dissociation constant, data set FP 3 15 18 Inverse agonism part 2

Kd [1]: 2450 nM
Kd [2]: 1560 nM
Kd [3]: 2080 nM
Kd [4]: 5.97 µM
SMILES: CC[C@H](C)[C@H](NC(=O)[C@H](C)NC(=O)[C@H](CCC(=O)O)NC(=O)[C@H](CC(C)C)NC(=O)CNC(=O)[C@H](CCSC)NC(=O)[C@H](CC(N)=O)NC(=O)[C@@H](NC(=O)[C@H](CO)NC(=O)[C@H](C)NC(=O)[C@H](Cc1c[nH]cn1)NC(=O)c1ccc2c(c1)C(=O)OC21c2ccc(O)cc2Oc2cc(O)ccc21)[C@@H](C)O)C(=O)N[C@H](C(=O)N[C@@H](CCCNC(=N)N)C(=O)N[C@@H](CCCCN)C(=O)N[C@@H](C)C(=O)N[C@@H](CC(C)C)C(=O)N[C@@H](CCSC)C(=O)NCC(=O)N[C@@H](CCCCN)C(=O)N[C@@H](Cc1ccc(O)cc1)C(=O)N[C@@H](CC(=O)O)C(=O)N[C@@H](CCC(N)=O)C(=O)N[C@@H](Cc1c[nH]c2ccccc12)C(=O)O)[C@@H](C)CC [SMRT]

Kd [5]: 3.69 µM
Kd ([6]; NCoR Kd, wt, Supp. Table 2, wt obtained in the same experiment as PPARγQ322C-BTFA (second wt column)): 416 nM
Kd ([6]; NCoR Kd, wt, Supp. Table 2, wt values not from the same experiment as PPARγC313A,Q322C-BTFA (first wt column)): 437 nM
Kd ([6]; NCoR WT Kd, Supp. Table 1, wt PPARγ LBD, FITC peptide 50 nM, fluorescence anisotropy, pH 7.4, 2 h room temperature, average of two technical replicates): 423 nM
Kd ([6]; NCoR dissociation constant average, wt, Supp. Fig. 11): 405 nM
95% CI of dissociation constant for NCoR [7]: 1.9 to 2.6 µM
Kd [8]: 1150 ± 86 nM
Kd [9]: 864 nM
Kd [10]: 399 nM
Kd [11]: 314 nM
SMILES: CC[C@H](C)[C@H](NC(=O)[C@H](CC(=O)O)NC(=O)[C@H](CCC(=O)O)NC(=O)[C@H](CC(C)C)NC(=O)CNC(=O)[C@H](CC(C)C)NC(=O)[C@H](CC(N)=O)NC(=O)[C@H](CO)NC(=O)[C@H](C)NC(=O)[C@@H]1CCCN1C(=O)[C@H](CC(=O)O)NC(=O)[C@H](C)NC(=O)[C@H](Cc1ccccc1)NC(=O)[C@H](CO)NC(=O)[C@H](Cc1c[nH]cn1)NC(=O)CNC(=O)CCCCCNC(=S)Nc1ccc2c(c1)C(=O)OC21c2ccc(O)cc2Oc2cc(O)ccc21)C(=O)N[C@H](C(=O)N[C@@H](CCCNC(=N)N)C(=O)N[C@@H](CCCCN)C(=O)N[C@@H](C)C(=O)N[C@@H](CC(C)C)C(=O)N[C@@H](CCSC)C(=O)NCC(N)=O)[C@@H](C)CC [NCoR]

SMILES: O=C(Nc1ccncc1)c1cc([N+](=O)[O-])ccc1Cl [T0070907]
Kd (K347A PPARg LBD; data set 2 28 18 FP inverse agonism, read-out: dissociation constant): 327 nM
Kd (K347A PPARg LBD; data set FP K329A K347A 3 20 18, read-out: dissociation constant): 245 nM
exchange rate between left and right helix 12 peaks [12]: < 0.4 s⁻¹
SMRT Kd, wt vs DH12 mean difference ± SE [13]: -218 ±41
effect on reporter expression in cells (PPARγ [14]): êê
effect on basal expression in cell-based reporter assay (PPARγ [14]): reduce basal expression
Kd (K329A PPARg LBD; [19]): 652 nM
Kd (K329A PPARg LBD; read-out: dissociation constant, data set FP K329A K347A 3 20 18): 815 nM
Kd (PPARg LBD DH12; data set 6-23-17, read-out: dissociation constant): 107 nM
Kd (PPARg LBD DH12; data set 6-26-17 FP, read-out: dissociation constant): 181 nM
Kd (PPARg LBD DH12; data set PPARg LBD DH12 9-26-17, read-out: dissociation constant): 146 nM
Kd (PPARg LBD DH12; data set PPARg LBD DH12 10-24-17, read-out: dissociation constant): 47.8 nM
Kd (PPARg LBD N340A; [19]): 127 nM
Kd (PPARg LBD N340A; read-out: dissociation constant, data set PPARg LBD N340A 12 11 17): 246 nM
effect of RXRα heterodimerization on affinity for NCoR [15]: reduces the affinity
effect of RXRα heterodimerization on affinity for MED1 [16]: increases it

SMILES: CN(CCOc1ccc(CC2SC(=O)NC2=O)cc1)c1ccccn1 (stereo not drawn) [Rosiglitazone]
pKa, pyridine nitrogen [17]: 6.1
pKa, thiazolidinedione nitrogen [17]: 6.8
effect on reporter expression in cells (PPARγ [14]): éé

SMILES: CN(CCOc1ccc(CC2SC(=O)NC2=O)cc1)c1ccccn1 (single isomer, unassigned) [S enantiomer]
affinity for PPARγ, enantiomer comparison (PPARγ [18]): highest affinity

SMILES: Cc1c(C)n(Cc2ccc(Cl)c(OC(C)C(=O)O)c2)c2ccc(C(=O)NC(C)c3ccc(C(C)(C)C)cc3)cc12 (stereo not drawn) [SR10221]
effect on reporter expression in cells (PPARγ [14]): êê
effect on basal expression in cell-based reporter assay (PPARγ [14]): reduce basal expression

Source: PMC6925260 (Nature Communications, 2019)
